Reference: patent US6306911A, “Substituted amino acids as neutral sphingomyelinase inhibitors” (Ortho-McNeil Pharmaceutical, Inc., priority 2000, dated 2001)

Tested on: neutral sphingomyelinase
Assay: Sphingomyelinase Assay: neutral sphingomyelinase inhibition, release of 14C-phosphocholine from 14C-sphingomyelin, U937 cell lysate
Assay type: biochemical
Conditions: U937 cell lysate as enzyme, 14C-sphingomyelin substrate, pH 7.5, 1 hour at 37
Protocol: Neutral sphingomyelinase is an enzyme that cleaves sphingomyelin to yield ceramide and phosphocholine. […] After cleavage, an extraction separates the labeled, water-soluble phosphocholine from the intact substrate and the ceramide.
Cell Iysates are made by nitrogen cavitation of harvested cells in Buffer A (20 mM Tris, pH 7.4, 250 mM sucrose, 10 mM EGTA, 10 ug/ml leupeptin, 1 mM PMSF, […]). Lysates are flash frozen and stored at -40 C.
Substrate Preparation: N-methyl-^14 C-sphingomyelin (specific activity 50 mCi/mM) and phosphatidylinositol are evaporated under a stream of nitrogen and resuspended at an equimolar concentration of 0.1 mM in water with 0.5% Triton X-100. The solution is vortexed for 30 minutes and then sonicated for 30 minutes.
Sphingomyelinase Assay: The reaction mixture contains 25 ul 2X Tris Mg buffer (200 mM Tris-HCl, pH 7.5. 160 mM MgCl), 10 ul ^14 C-sphingomyelin substrate, 10 ul lysate (enzyme) and 5 ul test compound or vehicle for a final volume of 50 l. The assays are carried out in 1.5 ml microcentriftige tubes and are incubated for 1 hour at 37. The reaction is stopped with 30 l of water and 175 l chloroform/methanol (2:1, v:v). The tubes arc vortexed vigorously, centrifuged for 5 minutes in a microfuge at maximum speed and 50 l of the upper, aqueous phase is counted in a liquid scintillation counter. Alternatively, the assay may be set up in wells of a 96-well PCR plate in identical proporations to a total volume of 50 l. Then the plates are incubated at 37 C incubator for 1 hour. H2 O (30 l) is added to all plates and the plates are again incubated for 1 hour. Chloroform-methanol (2:1) is added in a volume of 175 l followed by vigorous mixing. The plates are sealed with adhesive covers and centrifuged at 3000 rpm for 10 minutes at 5 C. The plates are uncovered and 50 µl of upper, aqueous phase is transferred to a Flashplate™(NEN) scintillation proximity assay plate. The Flashplates are dried overnight, sealed, and counted using a Topcount scintillation counter.
Compounds that are antagonists of neutral sphingomyelinase are reported as a positive value for inhibition in Table 4.

Compound | IC50 [µM]
COC(=O)[C@H](CO)[N+](C)(C/C=C/c1cccc2ccccc12)C/C=C/c1cccc2ccccc12 [Compound 14] | 19
CC(C(=O)OC(C)(C)C)[N+](C)(CC=Cc1cccc2ccccc12)CC=Cc1cccc2ccccc12 (centres unmarked) [Compound 15] | 28
C[C@@H](C(=O)O)N(CC#Cc1cccc2ccccc12)CC#Cc1cccc2ccccc12 [Compound 17, Alanine, N,N-Bis[3-(1-naphthalenyl)-2-propynyl]--] | 10
O=C(O)C(CO)N(CCCc1cccc2ccccc12)CCCc1cccc2ccccc12 (centres unmarked) [Compound 23] | 89

Same assay, conditions: highest concentration tested (100 uM); IC50 not determined; U937 cell lysate, 1 hour at 37

Compound | percentage of enzyme inhibition [%]
C[C@@H](O)[C@@H](C(=O)O)N(C/C=C/c1cccc2ccccc12)C/C=C/c1cccc2ccccc12 [Compound 10] | 21
C[C@@H](C(=O)O)N(C/C=C/c1ccnc2ccccc12)C/C=C/c1ccnc2ccccc12 [Compound 13] | < 5
C[N+](C/C=C/c1cccc2ccccc12)(C/C=C/c1cccc2ccccc12)[C@@H](CO)C(=O)O [Compound 16] | 24
O=C(O)C(CO)N(CC#Cc1cccc2ccccc12)CC#Cc1cccc2ccccc12 (centres unmarked) [Compound 18] | < 5
COc1ccc(C#CCN(CC#Cc2ccc(OC)cc2)[C@@H](C)C(=O)O)cc1 [Compound 19] | 27
CC(C(=O)O)N(Cc1cccc2ccccc12)Cc1cccc2ccccc12 (centres unmarked) [Compound 20] | < 5
O=C(O)C(CO)N(Cc1cccc2ccccc12)Cc1cccc2ccccc12 (centres unmarked) [Compound 21] | < 5
O=C(O)C(CO)N(CCc1cccc2ccccc12)CCc1cccc2ccccc12 (centres unmarked) [Compound 22] | < 5
CC(C(=O)OC(C)(C)C)N(CC=Cc1ccnc2ccccc12)CC=Cc1ccnc2ccccc12 (centres unmarked) [Compound 24] | < 5
CC(C(=O)O)N(CCc1cccc2ccccc12)CCc1cccc2ccccc12 (centres unmarked) [Compound 25] | < 5
